Values joined by “and” are separate entries in the source; they are usually repeats but may differ in a detail not shown here. Identical values can stand only once.
Columns and labels:
[1] = In vitro blood-brain barrier permeability assay (BBB kit RBT-24H); type: in vitro ADME, rat
Experimental: Therefore, we tested BBB transparency in vitro using the BBB kit RBT-24H (PharmaCo-Cell)[35]. […] Blood-brain barrier permeability assay The blood-brain barrier (BBB) transparency of TH analogs was assessed in vitro using RBT-24H (PharmaCo-Cell)[5] according to the manufacturer 's protocol. […] After 30 min, the assay buffer in the wells mimicking the abluminal side was collected, and the concentration of the compounds was measured using liquid chromatography-mass spectrometry (LC-MS). […] These tips were preconditioned with 20 μL of acetonitrile and 20 μL of 0.1% TFA in purified water. 100 μL of the samples were loaded onto the preconditioned tips, washed with 200 μL of DW, and then eluted with 10 μL of acetonitrile. Triazine (1% vol/vol) was added to the eluent as an internal standard. […] 3 μm; Imtakt, Kyoto, Japan). All the experiments were performed using an Ultimate 3000 UHPLC system coupled with a Q Exactive Plus Orbitrap mass spectrometer (Thermo Fisher Scientific). […] Data were shown as mean ± standard deviation (n=3).

[2] = test system: high-fat diet (HFD)-induced obesity model mice; test: Body weight of high-fat diet-induced obesity model mice; type: in vivo, C57BL/6J mice; set-up: Body weight, Mean Diff. ND vs. treated: unit not given here; details: for Body weight, 95.00% CI of diff. ND vs. treated / Body weight, Mean Diff. ND vs. treated: ND group as comparator; for Body weight, 95.00% CI of diff. ND vs. treated / Body weight, Mean Diff. ND vs. treated / Body weight, 95.00% CI of diff. Vehicle vs. treated / Body weight, Mean Diff. Vehicle vs. treated: Tukey's multiple comparisons test; for Body weight, Mean Diff. Vehicle vs. treated / Body weight, group mean (Fig. 3a) / Body weight, individual mice (Fig. 3a): in g (unit assumed); for Body weight, group mean (Fig. 3a): n 10
Experimental: The injection was given 6 h after light on. Food consumption and body weights were measured weekly. Food and water were provided to the animals ad libitum. The animals were treated according to the guidelines of Nagoya University, and all experimental procedures were approved by the Animal Experiment Committee of Nagoya University (A210715-003).
(§1) Epididymal adipose tissue was weighed.
(§2) Fig. 3 Effects of intraperitoneal injection of TH analogs on body weight and deposition of visceral fat. […] After three weeks of injection, body weight (a), and weight of the epididymal adipose tissue (b) were measured.

[3] = test system: high-fat diet (HFD)-induced obesity model mice; test: Weight of epididymal adipose tissue (visceral fat) in HFD mice; type: in vivo, C57BL/6J mice; details: for Fig. 3b (weight of epididymal adipose tissue), group mean (Mean 2): n=10; for Fig. 3b (weight of epididymal adipose tissue), group mean (Mean 2) / Fig. 3b (weight of epididymal adipose tissue), Mean Diff. ND vs. treatment (Tukey) / Fig. 3b (weight of epididymal adipose tissue), Mean Diff. Vehicle vs. treatment (Tukey) / Epididymal adipose weight, individual mice (Fig. 3b): in mg (unit assumed); for Fig. 3b (weight of epididymal adipose tissue), Mean Diff. ND vs. treatment (Tukey): ND minus treated; for Fig. 3b (weight of epididymal adipose tissue), Mean Diff. Vehicle vs. treatment (Tukey): Vehicle minus treated
Experimental: as §1, §2

[4] = test system: high-fat diet (HFD)-induced obesity model mice; test: Serum lipid analysis (total cholesterol, triglycerides) in HFD mice; type: in vivo, C57BL/6J mice; set-up: Serum TC (Fig. 4a), individual mouse values / Serum TG (Fig. 4b), individual mouse values / Serum TC (Fig. 4a), Mean Diff. ND vs. treatment (Tukey) / Serum TC (Fig. 4a), Mean Diff. Vehicle vs. treatment (Tukey) / Serum TC (Fig. 4a), group mean (Mean 2) / Mean Diff., ND vs. treated (Fig. 4b) / Mean Diff., Vehicle vs. treated (Fig. 4b) / Mean (Fig. 4b): unit not given here; details: for Serum TC (Fig. 4a), group mean (Mean 2) / Mean (Fig. 4b): n=10; for Serum TC (Fig. 4a), Mean Diff. ND vs. treatment (Tukey): ND minus treated; for Serum TC (Fig. 4a), Mean Diff. Vehicle vs. treatment (Tukey): Vehicle minus treated; for Mean Diff., ND vs. treated (Fig. 4b) / Mean Diff., Vehicle vs. treated (Fig. 4b): Tukey's multiple comparisons test; for Mean (Fig. 4b): group mean
Experimental: Fig. 4 Effects of TH analogs on the accumulation of lipids in mice. […] After 3 weeks of injection, serum and liver tissues were collected, and the amount of serum cholesterol (a), serum triglycerides (b), liver cholesterol (c), liver triglycerides (d), and liver total lipids (e) were measured.

[5] = test system: THR-regulated genes and lipid metabolism-related genes in the liver
THRβ = details: cited from earlier work
[6] = HFD mice, i.p., dose not given (0.1 or 1 µmol/kg day), 3 weeks
[7] = HFD mice, 1 μmol/kg day, RT-qPCR, reference gene Rps18
[8] = liver gene expression, 1µmol dose group vs. Vehicle

## Cn1c(=O)c2c(ncn2C)n(C)c1=O [Caffeine]
[1]; 10 µM on luminal side, 30 min, mean ± standard deviation (n=3)
  Abluminal concentration: 0.504 ± 0.0551 µM
[1]; rat, 10 μM on luminal side, read-out: apparent permeability (Papp)
  Papp at 30 min, 10 µM: 76.4 ± 8.35 ×10⁻⁶ cm/s

## N[C@@H](Cc1cc(I)c(Oc2ccc(O)c(I)c2)c(I)c1)C(=O)O [T3, triiodothyronine]
[2]; 0.1 µmol dose group
  Body weight, 95.00% CI of diff. ND vs. treated: -15.17 to -6.458
  Body weight, Mean Diff. ND vs. treated: -10.81
  Body weight, 95.00% CI of diff. Vehicle vs. treated: -0.6376 to 7.800
  Body weight, Mean Diff. Vehicle vs. treated: 3.581
[2]; 1 µmol dose group
  Body weight, 95.00% CI of diff. ND vs. treated: -10.58 to -1.870
  Body weight, Mean Diff. ND vs. treated: -6.225
  Body weight, 95.00% CI of diff. Vehicle vs. treated: 3.950 to 12.39
  Body weight, Mean Diff. Vehicle vs. treated: 8.169
[2]; HFD mice, 0.1 µmol dose group
  Body weight, group mean (Fig. 3a): 39.33
  Body weight, individual mice (Fig. 3a): 37.99 and 36.19 and 32.32 and 43.27 and 39.51 and 44.21 and 39.97 and 39.21 and 40.58 and 40.07
[2]; HFD mice, 1 µmol dose group
  Body weight, group mean (Fig. 3a): 34.74
  Body weight, individual mice (Fig. 3a): 29.82 and 33.07 and 30.29 and 38.87 and 37.72 and 35.76 and 37.12 and 36.01 and 34.61 and 34.17
[2]; HFD mice, i.p. 0.1 µmol/kg day, 3 weeks
  body weight vs vehicle (in words): did not significantly reduce body weight
[2]; HFD mice, i.p. 1 µmol/kg day, 3 weeks
  decrease of body weight compared to vehicle: ~ 20%
[3]; 0.1 µmol, HFD mice
  Fig. 3b (weight of epididymal adipose tissue), group mean (Mean 2): 1763
[3]; 0.1 µmol
  Fig. 3b (weight of epididymal adipose tissue), Mean Diff. ND vs. treatment (Tukey): -1079
  Fig. 3b (weight of epididymal adipose tissue), Mean Diff. Vehicle vs. treatment (Tukey): 1095
[3]; 1 µmol, HFD mice
  Fig. 3b (weight of epididymal adipose tissue), group mean (Mean 2): 1015
[3]; 1 µmol
  Fig. 3b (weight of epididymal adipose tissue), Mean Diff. ND vs. treatment (Tukey): -331.6
  Fig. 3b (weight of epididymal adipose tissue), Mean Diff. Vehicle vs. treatment (Tukey): 1843
[3]; HFD mice, 0.1 µmol dose group
  Epididymal adipose weight, individual mice (Fig. 3b): 1857.6 and 1829.3 and 1453.2 and 1516.6 and 740.6 and 1685.1 and 1862.2 and 1976.4 and 2365.6 and 2339.7
[3]; HFD mice, 1 µmol dose group
  Epididymal adipose weight, individual mice (Fig. 3b): 781.7 and 1090.4 and 983.4 and 966.1 and 975.7 and 1007.4 and 1167.4 and 1184.7 and 1023.2 and 969.5
[3]; [6]
  weight of the epididymal adipose tissue vs vehicle: decreased significantly
[4]; 0.1 µmol, HFD mice
  Serum TC (Fig. 4a), individual mouse values: 158.333 and 124.25 and 113.833 and 130.625 and 129.792 and 168.458 and 110 and 105.208 and 104.375 and 153.458
  Serum TG (Fig. 4b), individual mouse values: 79.667 and 70.5 and 70.583 and 116.333 and 98 and 97.167 and 90.5 and 123.833 and 87.167 and 118.833
  Serum TC (Fig. 4a), group mean (Mean 2): 129.8
  Mean (Fig. 4b): 95.26
[4]; 0.1 µmol
  Serum TC (Fig. 4a), Mean Diff. ND vs. treatment (Tukey): 49.59
  Serum TC (Fig. 4a), Mean Diff. Vehicle vs. treatment (Tukey): 120.2
[4]; 1 µmol, HFD mice
  Serum TC (Fig. 4a), individual mouse values: 78.333 and 92.5833 and 95.917 and 94.792 and 93.958 and 110.125 and 81.667 and 92.708 and 91.875 and 83.875
  Serum TG (Fig. 4b), individual mouse values: 109.75 and 118.917 and 137.25 and 189.75 and 144.75 and 162.25 and 110.583 and 122.25 and 108.917 and 100.583
  Serum TC (Fig. 4a), group mean (Mean 2): 91.58
  Mean (Fig. 4b): 130.5
[4]; 1 µmol
  Serum TC (Fig. 4a), Mean Diff. ND vs. treatment (Tukey): 87.84
  Serum TC (Fig. 4a), Mean Diff. Vehicle vs. treatment (Tukey): 158.5
[4]; ND minus 0.1 µmol group
  Mean Diff., ND vs. treated (Fig. 4b): 51.51
[4]; ND minus 1 µmol group
  Mean Diff., ND vs. treated (Fig. 4b): 16.27
[4]; Vehicle minus 0.1 µmol group
  Mean Diff., Vehicle vs. treated (Fig. 4b): 20.52
[4]; Vehicle minus 1 µmol group
  Mean Diff., Vehicle vs. treated (Fig. 4b): -14.72
[4]; [6]
  serum triglyceride level vs vehicle: no significant difference
[5]; 1µmol, one value per animal
  Dio1 expression in the liver, individual animal values: 3.359 and 3.177 and 2.594 and 3.891 and 4.465 and 3.761 and 2.009 and 5.092 and 4.047 and 3.355
  Ldlr expression in the liver, individual animal values: 0.07802 and 0.2909 and 0.1661 and 1.188 and 1.197 and 0.8436 and 2.271 and 0.5624 and 0.08829 and 0.1717
  Me1 expression in the liver, individual animal values: 1.618 and 1.709 and 1.627 and 3.524 and 2.735 and 3.173 and 4.935 and 5.075 and 3.984 and 2.564
  Pnpla2 expression in the liver, individual animal values: 0.3078 and 2.165 and 2.21 and 1.997 and 2.671 and 3.066 and 2.607 and 3.3336 and 0.6308 and 1.108
  Srebp1c expression in the liver, individual animal values: 0.06015 and 0.2255 and 0.1838 and 0.1704 and 0.1322 and 0.09864 and 0.3225 and 0.5342 and 0.08549 and 0.1455
  Thrsp expression in the liver, individual animal values: 1.539 and 1.364 and 0.6114 and 1.153 and 1.565 and 1.274 and 1.191 and 0.8905 and 1.332 and 1.012
[5]; [7]
  liver expression of Dio1 vs vehicle: significantly upregulated
  liver expression of Ldlr vs vehicle: not significantly different
  liver expression of Me1 vs vehicle: significantly upregulated
  liver expression of Srebp1c vs vehicle: significantly lower
  liver expression of Thrsp vs vehicle: no significant difference
[5]; [8]
  Pnpla2, Dunn's multiple comparisons test, Mean rank diff. (Vehicle vs. compound): -12.5
  Srebp1c, Dunn's multiple comparisons test, Mean rank diff. (Vehicle vs. compound): 17.87
[5]; liver gene expression, 1µmol dose group, Vehicle mean rank 8
  Pnpla2, Mean rank of treatment group (Mean rank 2): 20.5
[5]; liver gene expression, 1µmol dose group, Vehicle mean rank […]
  Srebp1c, Mean rank of treatment group (Mean rank 2): 15.8

## Cc1cc(OCC(=O)O)cc(C)c1Cc1ccc(O)c(Cc2ccccc2)c1 [GC-24]
THRβ
  selectivity for THRβ against THRα compared with GC-1: ten-fold greater selectivity
